According to patent US20140242551A1, “Oral Care System and Method” (priority 2013, published 2014):

How the values were obtained:
[1] = in-vitro test of oral rinses' ability to destroy or reduce microbial VSC toxins; conditions: 30 second exposure
Excerpt: FIG. 7 is an exemplary table of comparative laboratory text results, and a corresponding graphical representation of the average reduction in […] of each compound listed in the table.
FIG. 7 is an exemplary table of comparative laboratory text results, and a corresponding graphical representation of the average reduction in Volatile Sulfur Compounds of each compound listed in the table. More specifically, the table data and corresponding chart presents the results of controlled laboratory tests conducted on Aug. 11, 2012. The in-vitro tests simulated actual patient-use conditions anticipated in root canal and periodontal procedures. The measurements compare oral rinses based on their ability to destroy or reduce microbial VSC toxins after a 30 second exposure. The tests were completed for a variety of toxins including those produced by Porphyromonas gingivalis, Prevotella intermedia, Tannerella forsythia, Treponema socranskii, and Streptococcus mitis, all of which are routinely present in the oral cavity during periodontal and endodontic procedures.

[2] = tested on: bacteria typically found in the oral cavity; assay: standard Minimum Inhibitory Concentration test, other listed bacteria; type: cell-based; conditions: 18 to 24 hour MIC test
Protocol: (§1) FIG. 8 is an exemplary table of comparative laboratory test results illustrating Minimum Inhibitor Concentration of CD at a concentration of 37 parts per million versus Chlorhexidine (CHX) in effectiveness to destroy bacteria and yeast.
(§2) FIG. 8 is an exemplary table listing the comparative results of an 18 to 24 hour standard Minimum Inhibitory Concentration test of a chlorhexidine oral rinse solutions' effectiveness in inhibiting growth of bacteria typically found in the oral cavity, and during dental procedures. More specifically, under controlled test conditions of the University of Iowa College of Dentistry, May 15, 2012, a CD rinse solution was tested against and compared to the chlorhexidine (CHX) as shown.
(§3) It should be noted that even when CHX outperformed CD, or performed as well as CD but at lower concentrations, it did so after continuously acting upon the bacteria for a continuous period of 18 to 24 hours; CD on the other hand while the CD tested had been active for only three minutes, yet remarkably continued to inhibit growth for the subsequent testing time period.

[3] = tested on: Aggregatibacter actinomycetemcomitans; assay: standard Minimum Inhibitory Concentration test; type: cell-based; conditions: 18 to 24 hour test; CD at 37 parts per million, active for only three minutes
Protocol: as §1, §2, §3

[4] = tested on: Listeria, E. Coli, Pseudomonas, Salmonella, Staphylococcus, Streptococcus and others; conditions: within 30-60 seconds; cited from earlier work
[5] = in humans, including rare cases of anaphylactic shock; cited from earlier work

Structure (SMILES) | microbial toxins destroyed (reduction in Volatile Sulfur Compounds) [1] | growth inhibition compared with CHX (result in words) [2] | Minimum Inhibitory Concentration, as dilution of rinse inhibiting growth [3] | log reduction [4] | reduction [4] | toxin reduction (result in words) [1] | incidence of hypersensitivity reactions [5]
[O][Cl+][O-] [CD, chlorine dioxide] | 100% | equally well or slightly less well than CHX | 1/32 | 5 log | 99.999% |  | 
[H]/N=C(\N/C(=N/[H])NCCCCCCNC(=N)NC(=N)Nc1ccc(Cl)cc1)Nc1ccc(Cl)cc1 [Chlorhexidine, reference compound] |  |  | ⅛ |  |  | statistically nonsignificant drops | 2%
